Results published in PubChem BioAssay (NCI).
Several values for one entry are separate records, joined by “and”; a condition that tells them apart may be missing. Equal values may be shown once.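 A five-concentration, 48-hour dose response in 96-well plates underlies each endpoint, interpolated linearly between surrounding concentrations. GI50 is the concentration that inhibits growth by half. TGI: concentration producing complete growth inhibition.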

How the values were obtained:
Experiment in all cases: NCI anticancer screen, dose series, 48 h
[1] = tested on: EKVX NSCLC
[2] = tested on: LOX IMVI melanoma
[3] = tested on: SK-MEL-28 melanoma
[4] = tested on: OVCAR-4 ovarian
[5] = tested on: UACC-62 melanoma
[6] = tested on: SNB-75 CNS
[7] = tested on: HCT-15 colon
[8] = tested on: UO-31 renal
[9] = tested on: SN12C renal
[10] = tested on: 786-0 renal

SMILES	TGI [1]	TGI [2]	TGI [3] [µM]	TGI [4]	TGI [5]	TGI [6]	TGI [7] [µM]	TGI [8]	TGI [9]	TGI [10]	GI50 [1] [µM]	GI50 [2] [nM]	GI50 [3] [µM]	GI50 [4] [µM]	GI50 [5] [µM]	GI50 [6] [nM]	GI50 [7] [nM]	GI50 [8] [nM]	GI50 [9] [nM]	GI50 [10] [µM]
Cc1ccc(Nc2nnc(-c3ccc4c(c3)OCO4)o2)c(C)c1	> 100 µM	> 100 µM	> 100	> 100 µM	> 100 µM	> 100 µM	> 100	> 100 µM	> 100 µM	> 100 µM	–	–	–	–	–	–	–	–	–	–
Nc1ccccc1SC1CC(=O)N(c2ccc(Cl)c(Cl)c2)C1=O (stereo unspecified)	> 100 µM	> 100 µM	> 100	> 100 µM	> 100 µM	34.4 µM	> 100	45 µM	> 100 µM	90.3 µM	17.4	31700	45.4	19.2	14	13300	28600	11700	28500	27.3
O=C1CSC(c2ccc(-c3nc4ccccc4s3)cc2)=N1	13.5 µM	26.9 µM	> 100	> 100 µM	45.2 µM	> 100 µM	> 100	> 100 µM	99.4 µM	> 100 µM	1.81	7480	87.2	41.1	18	> 100000	51900	74800	36900	77.2
O=C1C(=O)N(c2cc(Cl)ccc2Cl)C(=O)C(=O)C1c1nc2ccccc2o1	> 100 µM	> 100 µM	> 100	> 100 µM	> 100 µM	> 100 µM	> 100	> 100 µM	> 100 µM	> 100 µM	–	–	–	–	–	–	–	–	–	–
Cn1c(=O)c2c(ncn2CC(=O)Nc2ccc(-c3ccccc3)nn2)n(C)c1=O	> 100 µM	> 100 µM	> 100	> 100 µM	> 100 µM	> 100 µM	> 100	> 100 µM	> 100 µM	> 100 µM	> 100	> 100000	> 100	> 100	84.7	> 100000	> 100000	> 100000	> 100000	> 100
CC/C=C/C/C=C/C/C=C/C/C=C/C/C=C/C/C=C/CCC(=O)Nc1ccn([C@@H]2O[C@H](CO)[C@@H](O)C2(F)F)c(=O)n1	> 58.9 µM	0.832 µM	25.8	65.5 µM	11.9 µM	> 50.1 µM	41.3	4.28 µM	8.78 µM	25.5 µM	6.14	51.2	11.5	17.5	0.0499	863	1820	48.6	126	0.0141
O=C(NCc1ccc(S(=O)(=O)c2cc(F)cc(F)c2)cc1)c1ccc2nccn2c1	> 100 µM	> 66.8 µM	98.1	> 77.3 µM	> 100 µM	45.8 µM	> 100	> 100 µM	> 100 µM	> 100 µM	23.3	> 33700	> 39.8	11.3	> 51	15300	47.2	> 44800	< 10	30.7
COC(=O)/C(=C\c1ccc(N(CCC#N)CCC#N)cc1)NC(=O)c1cc([N+](=O)[O-])ccc1Cl	> 100 µM	> 100 µM	> 100	> 100 µM	> 100 µM	> 100 µM	> 100	> 100 µM	> 100 µM	> 100 µM	–	–	–	–	–	–	–	–	–	–
CCOc1ccccc1NC(=O)C(C#N)C1=C(Cl)C(=O)c2ccccc2C1=O (stereo unspecified)	2.83 µM and 5.82 µM	2.08 µM and 3.28 µM	3.62	3.42 µM and 3.04 µM	3.24 µM and 3.36 µM	3.94 µM and 3.09 µM	2.94	3.1 µM and 2.86 µM	3.19 µM and 3.53 µM	3.18 µM and 2.19 µM	2.86	1380	–	1.67	–	1680	–	1510	–	0.899
O=C(O)C12CC3(C(=O)O)CC(C(=O)O)(CC(C(=O)O)(C1)C3=O)C2=O	> 100 µM	> 100 µM	> 100	> 100 µM	> 100 µM	> 100 µM	> 100	> 100 µM	> 100 µM	> 100 µM	–	–	–	–	–	–	–	–	–	–
CCN(CC)CCNc1ccc2ncn3c4cc(OC)c(OC)c(=O)c4c(O)c1c23	33.2 µM	2.74 µM	27.5	24.4 µM	36.6 µM	16.5 µM	24.7	25.7 µM	21.5 µM	26.4 µM	–	–	–	–	–	–	–	–	–	–
OCC(O)CNc1ccnc2cc(Cl)ccc12 (stereo unspecified)	> 100 µM	> 100 µM	> 100	> 100 µM	> 100 µM	> 100 µM	> 100	> 100 µM	> 100 µM	> 100 µM	–	–	–	–	–	–	–	–	–	–
O=C(OCc1ccc2c(Cl)cc(Cl)c(O)c2n1)N1CCN(C(=O)c2cc3cc(F)ccc3[nH]2)CC1	> 100 µM	> 100 µM	> 100	> 100 µM	> 100 µM	> 100 µM	> 100	> 100 µM	> 100 µM	> 100 µM	> 74.9	453	87	5.37	1.28	2850	1140	2590	1150	4.3
O/C(=C\c1nc2ccccc2nc1NC12CC3CC(CC(C3)C1)C2)c1ccc(Br)cc1	> 10 µM	> 10 µM	> 10	> 10 µM	> 10 µM	> 10 µM	> 10	> 10 µM	> 10 µM	> 10 µM	–	–	–	–	–	–	–	–	–	–
COC1=C(Br)C(=O)c2nc(C)ccc2C1=O	33.4 µM	24.3 µM	33.1	26.3 µM	33.2 µM	33.8 µM	27.7	32.4 µM	29.1 µM	27.2 µM	–	–	–	–	–	–	–	–	–	–
NC(=S)N/N=C/c1cc(-c2cccc(N)c2)ccn1	> 100 µM	34.6 µM	> 100	> 100 µM	> 24.5 µM	> 100 µM	> 100	8.69 µM	> 100 µM	6.34 µM	2.6	2090	4.35	2.66	1.38	2150	2710	907	2520	1.29
